Marks after values point to notes of the source that are not given here.
experiment: logP determination via retention times, calibrated with unbranched alkan-2-ones; type: physicochemical; conditions: HPLC on reversed-phase C 18, EEC Directive 79/831 Annex V.A8; method *: 40° C., 0.1% aqueous formic acid and acetonitrile, linear gradient 10% to 95% acetonitrile

| logP | SMILES |
| --- | --- |
| 1.51* | Cc1cc(Nc2ncc(Cl)c(NCC3CC3)n2)ccc1O [compound 558] |
| 2.45* | CSc1cc(Nc2ncc(Cl)c(NCC3CC3)n2)ccc1C [compound 547] |
| 2.51* | CCOC(=O)c1cccc(Nc2ncc(Br)c(NCC3CC3)n2)c1 [compound 477] |
| 1.75* | CCOC(=O)Nc1ccc(Nc2ncc(Br)c(NCC3CC3)n2)cc1O [compound 489] |
| 2.18* | CCOC(=O)Cc1ccc(Nc2ncc(Br)c(NCC3CC3)n2)cc1 [compound 486] |
| 2.51* | CC(=O)c1cc(Nc2ncc(Cl)c(NCC3CC3)n2)ccc1Cl [compound 540] |

same assay, conditions: HPLC on reversed-phase C 18, method **: 43° C.; 0.1% aqueous phosphoric acid and acetonitrile; linear gradient 10% to 95% acetonitrile

| logP | SMILES |
| --- | --- |
| 1.7** | CN(c1nc(Nc2ccccc2)ncc1Br)C1CC1 [compound 928] |
| 3.6** | CSc1cccc(Nc2ncc(Cl)c(N(C)CC3CC3)n2)c1 [compound 968] |

same assay, conditions: HPLC on reversed-phase C18, method *: 40° C., 0.1% aqueous formic acid and acetonitrile, linear gradient 10% to 95% acetonitrile

| logP | SMILES |
| --- | --- |
| 1.79* | OC(c1cccc(Nc2ncc(Cl)c(NC3CC3)n2)c1)C(F)(F)F (racemic) [compound 961] |
| 1.69* | CSc1ccc(Nc2ncc(Cl)c(NC3CC3)n2)cc1N [compound 664] |
| 2.01* | Cc1ccc(Nc2ncc(Cl)c(NC3CC3)n2)cc1C [compound 939] |
| 2.12* | CC(C)(C)OC(=O)Nc1ccc(Nc2ncc(Cl)c(NC3CC3)n2)cc1 [Example 100] |
| 1.39* | O=c1ccccn1-c1cccc(Nc2ncc(Cl)c(NC3CC3)n2)c1 [compound 726] |
| 1.49* | Oc1cccc(Nc2ncc(Cl)c(NCC3CC3)n2)c1 [compound 681] |
| 1.43* | CC(C)C(=O)Nc1ccc(Nc2ncc(Cl)c(NC3CC3)n2)cc1 [compound 111] |
| 1.55* | O=C1CCCCN1c1cccc(Nc2ncc(Br)c(NC3CC3)n2)c1 [compound 733] |
| 2.21* | CC(C)(C)NC(=O)c1ccc(Nc2ncc(Cl)c(NCC3CC3)n2)cc1 [compound 673] |
| 3.72* | FC(F)(F)Sc1ccccc1Nc1ncc(Cl)c(NC2CC2)n1 [compound 944] |
| 1.61* | Cc1ccccc1Nc1ncc(Cl)c(NC2CC2)n1 [compound 938] |
| 1.23* | O=C(O)Cc1cccc(Nc2ncc(Cl)c(NC3CC3)n2)c1 [compound 768] |
| 3.1* | COC(=O)c1ccc(Nc2ncc(Cl)c(NCC3CC3)n2)cc1Cl [compound 691] |
| 2.16* | CC(O)c1cccc(Nc2ncc(C(F)(F)F)c(NCC3CC3)n2)c1 (centres unmarked) [compound 705] |
| 0.79* | CN(C)Cc1cccc(Nc2ncc(Cl)c(NC3CC3)n2)c1 [compound 718] |
| 3.92* | CCCOc1cccc(Nc2ncc(C(F)(F)F)c(NC3CC3)n2)c1 [compound 699] |
| 1.24* | CCC(=O)Nc1ccc(Nc2ncc(Cl)c(NC3CC3)n2)cc1 [compound 711] |
| 3.55* | Clc1ccc(Nc2ncc(Cl)c(NC3CC3)n2)cc1Br [compound 942] |
| 3.94* | Clc1cnc(Nc2ccccc2Sc2ccccc2)nc1NC1CC1 [compound 884] |

same assay, conditions: HPLC on reversed-phase C18, method *: 40° C.; mobile phase 0.1% aqueous formic acid and acetonitrile; linear gradient 10% to 95% acetonitrile

| logP | SMILES |
| --- | --- |
| 3.66* | Clc1ccccc1C1(Nc2nc(Nc3ccccc3)ncc2Cl)CC1 [compound 318] |
| 2.13* | Cc1cc(C)cc(Nc2ncc(Cl)c(NC3CC3)n2)c1 [compound 274] |
| 2.09* | CC(=O)c1ccc(Nc2ncc(Br)c(NC3CC3)n2)cc1 [compound 357] |
| 1.8* | COc1cccc(Nc2ncc(Cl)c(NC3CC3)n2)c1 [compound 283] |
| 2.26* | CCOC(=O)c1cccc(Nc2ncc(Cl)c(NC3CC3)n2)c1 [compound 292] |
| 2.59* | Fc1ccc(Nc2ncc(Cl)c(NC3CC3)n2)cc1F [compound 321] |
| 3.48* | CSc1ccc(Nc2ncc(Cl)c(NC3CC3)n2)cc1C(F)(F)F [compound 322] |
| 3.06* | COc1cc(Nc2ncc(Cl)c(NC3(c4ccccc4Cl)CC3)n2)cc(OC)c1OC [compound 320] |
| 1.59* | Cc1cccc(C)c1Nc1ncc(Cl)c(NC2CC2)n1 [compound 273] |

same assay, conditions: HPLC on reversed-phase C18 column (EEC Directive 79/831 Annex V.A8); method *: 40° C.; 0.1% aqueous formic acid and acetonitrile; linear gradient 10% to 95% acetonitrile

| logP | SMILES |
| --- | --- |
| 1.44* | COC(=O)Nc1cccc(Nc2ncc(Cl)c(NC3CC3)n2)c1 [compound 193] |
| 1.76* | CS(=O)(=O)c1cccc(Nc2ncc(Br)c(NC3CC3)n2)c1 [compound 254] |

same assay, conditions: HPLC reversed-phase C 18, EEC Directive 79/831 Annex V.A8; method **: 43° C., 0.1% aqueous phosphoric acid and acetonitrile, linear gradient 10% to 95% acetonitrile

| logP | SMILES |
| --- | --- |
| 2.23** | CSc1cccc(Nc2nc(C)c(Cl)c(NC3CC3)n2)c1 [compound 837] |
| 1.57** | CON(C(C)=O)c1cccc(Nc2ncc(Cl)c(NC3CC3)n2)c1 [compound 850] |
| 3.34** | Brc1cnc(Nc2cccc(I)c2)nc1NC1CC1 [compound 860] |

same assay, conditions: HPLC reversed-phase C 18, EEC Directive 79/831 Annex V.A8; method *: 40° C., 0.1% aqueous formic acid and acetonitrile, linear gradient 10% to 95% acetonitrile

| logP | SMILES |
| --- | --- |
| 1.2* | O=C1COCCN1c1cccc(Nc2ncc(Cl)c(NC3CC3)n2)c1 [compound 791] |
| 1.94* | OC(c1cccc(Nc2ncc(Br)c(NC3CC3)n2)c1)C(F)(F)F (centres unmarked) [compound 798] |

same assay, conditions: method **: HPLC reversed-phase C 18, 43° C., 0.1% aqueous phosphoric acid and acetonitrile, linear gradient 10% to 95% acetonitrile

| logP | SMILES |
| --- | --- |
| 2.62** | CC(C)c1ccc(Nc2ncc(Cl)c(NCC3CC3)n2)cc1 [Example 54] |
| 2.23** | N#Cc1cc(Nc2ncc(Cl)c(NC3CC3)n2)ccc1N1CCCC1 [compound 439] |
| 2.14** | Cc1ccc(Nc2ncc(Cl)c(NC3CC3)n2)cc1S(=O)(=O)N(C)C [Example 47] |

same assay, conditions: method **: HPLC reversed-phase C 18, temperature 43° C.; mobile phase 0.1% aqueous phosphoric acid and acetonitrile; linear gradient 10% to 95% acetonitrile

| logP | SMILES |
| --- | --- |
| 1.83** | O=C1CCCN1c1cc(F)cc(Nc2ncc(Cl)c(NC3CC3)n2)c1 [compound 625] |
| 2.27** | CC(=O)Nc1ccc(Nc2ncc(C(F)(F)F)c(NC3CC3)n2)cc1Cl [compound 648] |

| SMILES | logP |
| --- | --- |
| CNC(=O)Oc1cccc(Nc2ncc(C(F)(F)F)c(NC3CC3)n2)c1 [compound 659] | 2.13** |

same assay, conditions: method **: HPLC, reversed-phase C 18, 43° C., mobile phase 0.1% aqueous phosphoric acid and acetonitrile, linear gradient from 10% to 95% acetonitrile

| logP | SMILES |
| --- | --- |
| 2.37** | COCc1cccc(Nc2ncc(Cl)c(NC3CC3(C)C)n2)c1 (centres unmarked) [compound 1028] |
| 2.37** | CC1(C)CC1Nc1nc(Nc2ccccc2)ncc1Cl (centres unmarked) [compound 1027] |
| 3.54** | C=CCOc1cccc(Nc2ncc(C(F)(F)F)c(NC3CC3)n2)c1 [compound 1024] |

same assay, conditions: method *: HPLC reversed-phase C18, 40° C., 0.1% aqueous formic acid and acetonitrile, linear gradient 10% to 95% acetonitrile

| logP | SMILES |
| --- | --- |
| 1.66* | CC1(C(=O)Nc2ccc(Nc3ncc(Cl)c(NC4CC4)n3)cc2)CC1 [Example 64] |
| 2.16* | CC(C)(C)NC(=O)c1cccc(Nc2ncc(Br)c(NCC3CC3)n2)c1 [compound 461] |
| 1.22* | OCc1cccc(Nc2ncc(Cl)c(NC3CC3)n2)c1 [Example 82] |
| 2.77* | N#Cc1cnc(Nc2ccccc2)nc1NCC1CC1 [compound 87] |
| 1.38* | O=C1CCC(=O)N1c1cccc(Nc2ncc(Br)c(NC3CC3)n2)c1 [compound 447] |
| 1.63* | CC(C)C(=O)Nc1cccc(Nc2ncc(Cl)c(NC3CC3)n2)c1 [Example 86] |
| 2.29* | CSc1ccc(Nc2ncc(Br)c(NCC3CC3)n2)cc1 [compound 453] |
| 2.7* | Clc1cccc(Nc2ncc(Cl)c(NC3CC3)n2)c1 [compound 1] |

same assay, conditions: method *: HPLC reversed-phase C 18, temperature 40° C.; mobile phase 0.1% aqueous formic acid and acetonitrile; linear gradient 10% to 95% acetonitrile

| logP | SMILES |
| --- | --- |
| 1.35* | O=C1CCCN1c1ccc(Nc2ncc(F)c(NC3CC3)n2)cc1 [compound 593] |
| 2.06* | COC(=O)Nc1cccc(Nc2ncc(C#N)c(NC3CC3)n2)c1 [compound 612] |
| 2.18*; | CC(=O)Nc1ccc(Nc2ncc(C(F)(F)F)c(NC3CC3)n2)cc1Cl [compound 648] |
| 3.15* | CSc1ccc(Nc2ncc(Cl)c(NCC3CC3)n2)cc1Cl [compound 626] |
| 1.6* | O=C1CCCN1c1cccc(Nc2ncc(I)c(NC3CC3)n2)c1 [compound 637] |
| 1.58* | O=C(Nc1ccc(Nc2ncc(F)c(NC3CC3)n2)cc1)C(F)(F)F [compound 583] |
| 1.91* | O=C(NCC(F)(F)F)c1cccc(Nc2ncc(Br)c(NC3CC3)n2)c1 [compound 622] |
| 2.99* | N#Cc1ccc(Nc2ncc(C(F)(F)F)c(NC3CC3)n2)cc1 [compound 642] |
| 1.28* | COC(=O)Nc1ccc(Nc2ncc(F)c(NC3CC3)n2)cc1 [compound 594] |
| 2.58* | N#Cc1cnc(Nc2ccc(F)cc2)nc1NC1CC1 [compound 616] |
| 4.08* | CSc1ccc(Nc2ncc(C(F)(F)F)c(NC3CC3)n2)cc1Cl [compound 646] |
| 1.39* | O=C(NC1CC1)c1cccc(Nc2ncc(Cl)c(NC3CC3)n2)c1 [compound 629] |
| 1.49* | O=C(NC1CC1)c1cccc(Nc2ncc(Br)c(NC3CC3)n2)c1 [compound 628] |
| 1.61* | N#Cc1cccc(Nc2ncc(F)c(NC3CC3)n2)c1 [compound 571] |

| SMILES | logP |
| --- | --- |
| CNC(=O)Oc1cccc(Nc2ncc(C(F)(F)F)c(NC3CC3)n2)c1 [compound 659] | 2.06*; |

same assay, conditions: method *: HPLC, reversed-phase C 18, 40° C., mobile phase 0.1% aqueous formic acid and acetonitrile, linear gradient from 10% to 95% acetonitrile

| logP | SMILES |
| --- | --- |
| 1.76* | COCc1cc(COC)cc(Nc2ncc(Cl)c(NC3CC3)n2)c1 [compound 1012] |
| 2.36*; | COCc1cccc(Nc2ncc(Cl)c(NC3CC3(C)C)n2)c1 (centres unmarked) [compound 1028] |
| 2.37*; | CC1(C)CC1Nc1nc(Nc2ccccc2)ncc1Cl (centres unmarked) [compound 1027] |
| 2.42* | CC(C)Oc1ccc(Nc2ncc(Cl)c(NC3CC3)n2)cc1OC(C)C [compound 992] |
| 1.97* | CC(C)Oc1ccc(Nc2ncc(Cl)c(NC3CC3)n2)cc1 [compound 989] |
| 1.34* | CC(=O)Nc1cc(Nc2ncc(Cl)c(NC3CC3)n2)ccc1C [compound 982] |

same assay, conditions: pH 2.3; read-out: logP (pH2.3)

| chromatographic logP | SMILES |
| --- | --- |
| 1.82 | Ic1cnc(Nc2ccccc2)nc1NC1CC1 [N^4-Cyclopropyl-5-iodo-N^2-phenylpyrimidine-2,4-diamine] |
| 2.69 | Clc1ncc(Br)c(NCC2CC2)n1 [5-bromo-2-chloro-N-(cyclopropylmethyl)pyrimidine-4-amine] |

Source: patent US20100081679A1, “DIAMINOPYRIMIDINES AS FUNGICIDES” (Bayer CropScience AG, priority 2007, published 2010)
